Assay results published in patent US8034810B2, “Arylsulfonamido-substituted hydroxamic acid derivatives” (Novartis AG, priority 1999, dated 2011).
Counter-ions that a name gives are not always drawn.

target: T1, MMP2 (gelatinase A) (Homo sapiens, UniProt P08253); test: In vitro inhibition of MMP2 (gelatinase A), fluorogenic peptide substrate; type: biochemical; details: APMA-activated recombinant human proMMP2; substrate 10 μM; 37° C.
T1 construct: made in house; host or cells: Tn insect cells, baculovirus (pFAST BAC 1)
T1 sequence (P08253 110-660): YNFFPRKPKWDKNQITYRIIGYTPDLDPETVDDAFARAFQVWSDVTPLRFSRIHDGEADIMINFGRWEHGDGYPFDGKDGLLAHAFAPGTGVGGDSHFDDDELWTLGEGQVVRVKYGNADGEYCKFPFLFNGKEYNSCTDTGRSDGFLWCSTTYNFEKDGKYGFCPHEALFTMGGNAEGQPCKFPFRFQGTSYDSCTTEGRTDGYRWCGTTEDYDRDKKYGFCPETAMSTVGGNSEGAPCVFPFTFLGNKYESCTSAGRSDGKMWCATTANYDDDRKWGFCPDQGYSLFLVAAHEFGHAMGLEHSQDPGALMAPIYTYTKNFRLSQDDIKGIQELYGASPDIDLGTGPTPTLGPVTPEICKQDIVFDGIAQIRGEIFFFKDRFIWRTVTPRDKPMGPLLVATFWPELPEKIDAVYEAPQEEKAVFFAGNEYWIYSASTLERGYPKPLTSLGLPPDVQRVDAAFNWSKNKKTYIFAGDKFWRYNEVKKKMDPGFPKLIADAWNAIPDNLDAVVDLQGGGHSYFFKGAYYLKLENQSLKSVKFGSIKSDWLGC
Procedure: The inhibitory activities of compounds of formula I on MT1-MMP, MMP1 (collagenase 1) and MMP2 (gelatinase A) can be determined as follows:
Stock solutions of substrate (MCA-Pro-Leu-Gly-Leu-Dpa-Ala-Arg-NH2, Knight, C. G., Willenbrock, F., Murphy, G., A novel coumarin-labelled peptide for sensitive continuous assays of the matrix metalloproteinases, FEBS lett., 296, 263-266, (1992)), are prepared in 100% DMSO at a concentration 1.0 mM. Stock solutions of inhibitors are prepared in 100% DMSO. The inhibitor is diluted into the assays from a solution in 100% DMSO, and controls substitute an equal volume of DMSO so that the final DMSO concentration from inhibitor and substrate dilutions in all assays is 6.0%. Assays are performed in assay buffer (150 mM NaCl, 10 mM CaCl2, 50 mM Tris-Cl pH7.5, 0.05% Brij-35) containing 6.0% DMSO once the substrate and inhibitor are diluted into it. The substrate concentration used in the assays is 10 μM. The test is carried out at 37° C. The fluorescence changes are monitored using an excitation wavelength of 320 nm and an emission wavelength of […]. The reaction mixture is added in duplicate to appropriate wells of a 96 well microfluor plate. The reaction mixture is preincubated with the inhibitor for 30 min, the reaction is started by the addition of MMP enzyme and the fluorescence intensity is measured for 10 min. A time point that is on a linear part of the curve is chosen to determine the activity. The inhibition results are expressed as the inhibitor concentrations that produced 50% inhibition (IC50) of the activity in the control (non-inhibited) reaction. In this test, the compounds of the formula I and their pharmacologically acceptable salts have an inhibiting concentration IC50 [μmol/litre] of 0.0001 and 0.030, usually of 0.0002 to 0.010, for MMP2 and an inhibiting concentration IC50 [μmol/litre] of 0.0005 and 0.125, usually of 0.001 to 0.05, for MT1-MMP.
Plasmid: The cDNA for human proMMP2 is supplied by Prof. Motoharu Seiki, Institute of Medical Science, The University of Tokyo. The cDNA encoding a full length on human pro-MMP2 is generated by PCR of cDNA derived from RNA isolated from human HT1080 cells (ATCC# CCL121). The primers to generate this cDNA are GAATTCGATGGAGGCG CTAATGGCCCGG and […] corresponding to full length human pro-MMP2 of the reported cDNA sequence, GenBank accession number J03210. The resulting 2.0 Kb PCR fragment is cloned into EcoR1/Xho 1 site of pFAST BAC 1 vector (pBAC-MMP2) (Collier, I. E., Wilhelm, S. M., Eisen, A. Z., Manner, B. L., Grant, G. A., Seltzer, J. L., Kronberger, A., He, C., Bauer, E. A. and Goldberg, G. I. J. Biol. Chem., 263:6579-6587, 1988).
Expression and Purification: For baculovirus expression of r-proMMP2, pBAC-MMP2 is transformed into DH10BAC competent cells to produce a r-proMMP2 bacmid DNA. The recombinant bacmid DNA is transfected into cultured insect cells (Tn cells) with Cellfectin reagent (Gibco BRL). Recombinant baculovirus are plaque purified to homogeneity and are used to generate high titer stocks of the recombinant baculovirus. Expression of r-proMMP2 is confirmed by gelatin zymography.
Culture fluids of Tn cells infected with baculovirus are centrifuged and filtrated through a […] pore size filter to remove cell debris. The recombinant proMMP2 as absorbed to gelatin Sepharose 4B (Pharmacia Biotech) in equilibration buffer of in 25 mM Tris-HCl (pH 7.5), 1 M NaCl, 10 mM CaCl2, 0.05% Briji 35 at 4° C. After washing the beads with equilibration buffer, r-proMMP2 as eluted with equilibration buffer containing 10% DMSO. The enzyme are stored at 4° C. until activation. For assay, the purified proMMP2 is activated with 1 mM APMA for 1 hr at 37° C.

In order of falling IC50:
1. O=C(CN(Cc1ccc(-n2cncn2)cc1)S(=O)(=O)c1ccc(OCCC2CC2)cc1)NO [Example 82a]  40.2 nM
2. C=CCCOc1ccc(S(=O)(=O)N(CC(=O)NO)Cc2ccc(N3CCCC3)cc2)cc1 [Example 84a, 2-[(4-But-3-enyloxy-benzenesulfonyl)-(4-(pyrrolidin-1-yl)-benzyl)-amino]-N-hydroxyacetamide-hydrochloride]  14.7 nM
3. C=CCCOc1ccc(S(=O)(=O)N(CC(=O)NO)Cc2ccc(N3CCOCC3)cc2)cc1 [Example 81, 2-[(4-But-3-enyloxy-benzenesulfonyl)-(4-morpholin-4-yl-benzyl)-amino]-N-hydroxy-acetamide-hydrochloride]  10.4 nM
4. 2-[(Cyclopropylmethoxy-benzenesulfonyl)-(4-[1,2,4]triazol-1-yl-benzyl)-amino]-N-hydroxyacetamide-hydrochloride salt [Example 82b]  10.4 nM
5. C=CCCOc1ccc(S(=O)(=O)N(CC(=O)NO)Cc2ccc(-n3ccnc3)cc2)cc1 [Example 80, 2-[(4-But-3-enyloxy-benzenesulfonyl)-(4-imidazol-1-yl-benzyl)-amino]-N-hydroxy-acetamide-hydrochloride]  8 nM
6. O=C(CN(Cc1ccc(-n2cncn2)cc1)S(=O)(=O)c1ccc(OCc2ccoc2)cc1)NO [Example 82c]  5.3 nM
7. C=CCCOc1ccc(S(=O)(=O)N(CC(=O)NO)Cc2cccc(F)n2)cc1 [Example 83a, 2-([4-But-3-enyloxy-benzenesulfonyl]-(6-fluoro-pyridine-2-yl)methyl-amino)-N-hydroxyacetamide]  2.1 nM
8. C#CCOc1ccc(S(=O)(=O)N(CC(=O)NO)Cc2ccc(OC)cc2)cc1 [Example 75, [(4-methoxy-benzyl)-[4-prop-2-ynyloxy-benzenesulfonyl]-amino]-N-hydroxy-acetamide]  1 nM
9. COc1ccc(CN(CC(=O)NO)S(=O)(=O)c2ccc(OCCCCl)cc2)cc1 [Example 68, 2-{[4-(3-chloro-propoxy)-benzenesulfonyl]-(4-methoxy-benzyl)amino}-N-hydroxy-acetamide]  0.7 nM
10. C=CCCOc1ccc(S(=O)(=O)N(CC(=O)NO)Cc2ccc(-n3cncn3)cc2)cc1 [Example 79, 2-[(4-but-3-enyloxy-benzenesulfonyl)-(4-[1,2,4]triazol-1-yl-benzyl)-amino]-N-hydroxy-acetamide-hydrochloride salt]  0.2 nM
